System: P. falciparum stage V gametocytes
Experiment: microbe, parasite or virus in culture
Parameters: BacTiter-Glo ATP luminescence viability of purified stage V gametocytes in 384-well plates, per cent inhibition versus DMSO
Conditions: 48 h, 5 µM; inhibitor

SMILES | % Inhibition [%]
CN(C)CCN1CCN(CCCN2c3ccccc3Sc3ccc(C(F)(F)F)cc32)CC1 [TCMDC-142257] | 92.65

Same assay, conditions: Plasmodium falciparum, 48 h, read-out: % Inhibition

SMILES | inhibition at 5 µM [%]
CCN(CC)CCCC(C)Nc1c(-c2ccc(C)cc2)cnc2ccccc12 (stereo not shown) [TCMDC-142264] | 25.6
COc1ccc2nccc(NN=Cc3ccc(Cl)cc3)c2c1 [TCMDC-142124] | 58.2
Nc1c2c(nc3ccc(C(=O)Nc4ccc(Br)cc4)cc13)CCCC2 [TCMDC-142287] | 62.2
COc1ccc2c(NN=CC=Cc3ccccc3)ccnc2c1 [TCMDC-142144] | -5.92
Cc1cc(N/N=C/c2ccc([N+](=O)[O-])cc2)c2ccc(F)cc2n1 [TCMDC-142170] | 105
Cc1cc(N/N=C/c2ccccc2[N+](=O)[O-])c2cc(F)ccc2n1 [TCMDC-142167] | -36.5
Cc1cc(NN=Cc2ccc(Cl)cc2)c2ccc(F)cc2n1 [TCMDC-142160] | -41.4
CCN(CC)CC(O)c1cc(-c2ccc(C)cc2)nc2c(C)cc(C)cc12 (stereo not shown) [TCMDC-142229] | -117
Oc1ccc(CCCc2cc(Oc3c(I)cc(CCc4ncc[nH]4)cc3I)ccc2O)cc1 [TCMDC-142308] | -67
OC(c1cc(C(F)(F)F)nc2c(F)cccc12)C1CCCCN1 (stereo not shown) [TCMDC-142228] | 37.8
COc1ccc2c(NN=Cc3ccccc3Cl)ccnc2c1 [TCMDC-142127] | -22.2
Cc1ccccc1C1=CCN(CCCN2c3ccccc3Sc3ccc(Cl)cc32)CC1 [TCMDC-142249] | 53.4
CCCCCC(C)C(C)c1cc(O)c2c3c(c(=O)oc2c1)CN(Cc1ccccc1)CC3 (stereo not shown) [TCMDC-142182] | 75.7
Cc1[nH]cnc1CSCCN/C(=N\C#N)NCCCCCCCCN/C(=N/C#N)NCCSCc1nc[nH]c1C [TCMDC-142302] | 48.1
COc1ccc(C=NNc2c3ccccc3nc3ccccc23)c2ccccc12 [TCMDC-142231] | -139
CC(C)NCc1cc(Nc2ccnc3cc(Cl)ccc23)ccc1O [TCMDC-142277] | -61.6
COc1ccc2nccc(NN=Cc3cccc(Cl)c3)c2c1 [TCMDC-142125] | 11.8
COc1ccccc1CNc1nc(Nc2ccccc2C)nc2ccccc12 [TCMDC-142330] | 93.6
CC(C)c1cc(Oc2c(I)cc(CCN=C(N)N)cc2I)ccc1O [TCMDC-142299] | 38.1
Cc1cc(N/N=C/c2cccc([N+](=O)[O-])c2)c2cc(F)ccc2n1 [TCMDC-142166] | -21.6
CCCCCCCCNc1c2ccc(Cl)cc2nc2ccc(OC)cc12 [TCMDC-142191] | 0.773
O=[N+]([O-])c1cccc(/C=N/Nc2ccnc3ccc(C(F)(F)F)cc23)c1 [TCMDC-142150] | 7.31

SMILES | inhibition at 5 µM [%]
Cc1ccccc1Nc1nc(NCCCO)c2ccccc2n1 [TCMDC-142327] | 41.9
CCOc1ccc2c(NN=Cc3ccc(F)cc3)cc(C)nc2c1 [TCMDC-142201] | 105
c1ccc2c3c(ccc2c1)Sc1c(ccc2ccccc12)N3 [TCMDC-142267] | -92.1
COc1ccc2c(NN=Cc3ccccc3)cc(C)nc2c1 [TCMDC-142119] | 7.88
O=C(NC1c2ccccc2Oc2ccccc21)c1ccccc1O [TCMDC-142251] | 3.63
CN(C)c1ccc(C=Cc2ccc3ccccc3n2)c(Cl)c1 [TCMDC-142212] | 36.3
N[C@@H](Cc1cc(I)c(Oc2ccc(O)c(C(=O)O)c2)c(I)c1)C(=O)O [TCMDC-142341] | 5.53
Cc1cc(NN=CC=Cc2ccccc2)c2ccc(F)cc2n1 [TCMDC-142176] | -23.9
Cc1cc(NN=Cc2ccc(F)cc2)c2cc(F)ccc2n1 [TCMDC-142172] | -47.2
Fc1ccc2nccc(NN=Cc3ccccc3Cl)c2c1 [TCMDC-142122] | -2.19
N=C(N)c1cccc(OCCCOc2cccc(NC(=O)Nc3ccc([N+](=O)[O-])cc3)c2)c1 [TCMDC-142189] | 24.9
Cc1cc(NN=Cc2ccc(Cl)cc2)c2cccc(C)c2n1 [TCMDC-142115] | -40.8
CC1=C(C(=O)OCCOCc2ccccc2)C(c2ccccc2C(F)(F)F)C(C(=O)OCCOCc2ccccc2)=C(C)N1 [TCMDC-142290] | 61.1
Fc1ccccc1C=NNc1ccnc2ccc(C(F)(F)F)cc12 [TCMDC-142104] | -68.2
Nc1cc(-c2ccc3ccccc3c2)nc2ccccc12 [TCMDC-142281] | 1.22
Cc1cc(NN=Cc2ccccc2)c2cc(F)ccc2n1 [TCMDC-142175] | -16.9
CCOC(=O)c1cnc2c(OC)cc(OC)c(Cl)c2c1Nc1ccccc1 [TCMDC-142240] | 44.8
CCCCN(CCCC)Cc1cc(Nc2ccnc3cc(Cl)ccc23)ccc1O [TCMDC-142279] | -8.89
COc1cccc2c(N/N=C/c3cccc([N+](=O)[O-])c3)ccnc12 [TCMDC-142142] | -28.6
Cc1cc(Br)cnc1CCCCNc1cc(=O)c2ccccc2[nH]1 [TCMDC-142316] | -5.57
CCOC(=O)c1cnc2c(OC)cc(OC)c(Cl)c2c1Nc1cccc(C)c1 [TCMDC-142241] | -99.9
Cc1cc(NN=CC=Cc2ccccc2)c2cc(F)ccc2n1 [TCMDC-142177] | -42.3

SMILES | inhibition at 5 µM [%]
COc1cccc2c(N/N=C/c3ccccc3[N+](=O)[O-])ccnc12 [TCMDC-142141] | 90.8
COc1cccc2c(NN=Cc3ccccc3F)ccnc12 [TCMDC-142181] | -26
[O-][s+]1nc(NCCCN(Cc2cccs2)c2ccccn2)c(NCc2ccccc2)n1 (stereo not shown) [TCMDC-142312] | 5.1
Nc1c2c(nc3ccccc13)C(=Cc1ccc(O)cc1)CCC2 [TCMDC-142288] | -4.93
Cc1cc(NN=Cc2ccccc2Cl)c2cccc(C)c2n1 [TCMDC-142114] | 48.6
Cc1cc(F)ccc1Nc1nc(N(C)c2ccccc2)c2cccc(O)c2n1 [TCMDC-142331] | -52.7
CCOc1ccc2c(NN=Cc3cc(OC)c(OC)c(OC)c3)cc(C)nc2c1 [TCMDC-142208] | 101
COc1ccc2c(NN=Cc3ccccc3F)cc(C)nc2c1 [TCMDC-142118] | -19.6
CC(C)(C)NCC(O)COc1ccc(Cl)cc1C1=NNC(=O)CC1 (stereo not shown) [TCMDC-142298] | 8.53
CCCCN(CCCC)CC(O)c1cc(-c2ccc(Cl)cc2)nc2c(Cl)cc(Cl)cc12 (stereo not shown) [TCMDC-142268] | -20.8
FC(F)(F)c1ccc2nccc(NN=Cc3cccc(Cl)c3)c2c1 [TCMDC-142148] | 56
Fc1ccc(C=NNc2ccnc3ccc(C(F)(F)F)cc23)cc1 [TCMDC-142152] | -15.6
COc1ccc(C=NNc2ccnc3ccccc23)c2ccccc12 [TCMDC-142215] | -96.9
CCCC(C(=O)OCCNC)(c1ccccc1)c1ccccc1 [TCMDC-142275] | 48.4
CCOc1ccc2c(NN=Cc3cccc(Cl)c3)cc(C)nc2c1 [TCMDC-142192] | -2.16
COc1ccc(C=NNc2cc(C)nc3ccccc23)cc1OC [TCMDC-142184] | -5.19
CCN(CC)Cc1cc(NC(=O)c2ccccc2O)ccc1Oc1ccc(Cl)cc1 [TCMDC-142283] | -6.19
Cc1ccc(Cc2cnc(NCCSCc3ccc(CN(C)C)s3)[nH]c2=O)cn1 [TCMDC-142304] | -3.6
CCN(Cc1ccccc1)CC(O)c1ccc(Cl)c(Cl)c1 (stereo not shown) [TCMDC-142226] | 14.8
Cc1ccc2c(c1[N+](=O)[O-])N=NCC2Oc1ccccc1 (stereo not shown) [TCMDC-142213] | 38.1
O=C(OCc1ccccn1)c1nc2ccccc2[nH]1 [TCMDC-142313] | 43.6
CCCCCCN(CCCCCC)CC(O)c1c(OC)ccc2ccccc12 (stereo not shown) [TCMDC-142248] | -34.9

SMILES | inhibition at 5 µM [%]
CCOc1ccc2c(NN=Cc3ccccc3OC)cc(C)nc2c1 [TCMDC-142203] | 87.4
Cc1cc(N/N=C/c2cccc([N+](=O)[O-])c2)c2ccc(F)cc2n1 [TCMDC-142169] | 109
Nc1c2c(nc3ccc(Oc4ccc(Cl)cc4)cc13)CCCC2 [TCMDC-142282] | 92
Fc1ccc2nccc(NN=CC=Cc3ccccc3)c2c1 [TCMDC-142123] | -73.4
COc1ccc2nccc(NN=Cc3cccc([N+](=O)[O-])c3)c2c1 [TCMDC-142137] | 53.9
Cc1cc(NN=Cc2cccc(Cl)c2)c2ccc(F)cc2n1 [TCMDC-142161] | -34
O=c1c(NCCCN(Cc2ccc(F)cc2)c2ccccn2)c(NCc2cccnc2)c1=O [TCMDC-142311] | 48
Cc1cc(Br)cnc1CCCCN=C1NC(=O)CN1C [TCMDC-142309] | 5.26
COc1cccc(C=NNc2cc(C)nc3c(OC)cccc23)c1 [TCMDC-142197] | 92.7
C=CCN1Cc2c(O)cccc2C(c2ccc(O)c(O)c2)C1 (stereo not shown) [TCMDC-142270] | -127
N=C(N)c1ccc(/C=C/c2ccc(C(=N)N)cc2O)cc1 [TCMDC-142178] | 1.54
CC(C)(C)c1cc(Cl)cc(C(=O)Nc2cc([N+](=O)[O-])ccc2Cl)c1O [TCMDC-142214] | 36.2
CCCCc1ccc2[nH]cc(C(=O)OCC)c(=O)c2c1 [TCMDC-142243] | 33.5
CCCCCCc1cc(Oc2c(I)cc(C[C@H](N)C(=O)O)cc2I)ccc1O [TCMDC-142342] | 5.11
O=[N+]([O-])c1ccccc1C=NNc1c2c(nc3ccccc13)CCCC2 [TCMDC-142202] | -53.6
CCCC(=O)c1cnc2cc(O)ccc2c1Nc1ccccc1C [TCMDC-142323] | -12.6
FC(F)(F)c1ccc2nccc(NN=Cc3ccccc3Cl)c2c1 [TCMDC-142147] | -24.8
Fc1ccc2c(NN=CC=Cc3ccccc3)ccnc2c1 [TCMDC-142112] | 93.5
CCCCCNc1nc(Nc2ccccc2C)nc2ccccc12 [TCMDC-142328] | 26.7
Cc1cc(N/N=C/c2ccccc2[N+](=O)[O-])c2ccc(F)cc2n1 [TCMDC-142168] | -45.1

Same assay, conditions: Plasmodium falciparum, 48 h; read-out: % Inhibition

SMILES | inhibition at 5 µM [%]
CCCCCC(C)C(C)c1cc(O)c2c(c1)OC1(C(C)C)CC(O)C(C)C2C1 (stereo not shown) [TCMDC-142232] | 44.6
